Patent US11149054B2, “Oxysterols and methods of use thereof” (Sage Therapeutics, Inc., priority 2016, dated 2021)

Experiments:
[1] = target: GluN2B glutamate receptors (Homo sapiens (Human), UniProt Q05586+Q13224); experiment: Whole-cell patch clamp of mammalian cells (Ionworks Barracuda), positive allosteric modulation, GluN2B; assay type: cell-based; conditions: % potentiation of current elicited with EC20 L-glutamate and 30 μM glycine; read-out: Avg Emax 2B (%)
In short: (§1)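 Perforated-patch whole-cell recording, holding −70 mV, −40 mV during application; Cs-based internal pH 7.2, external with 5 mM CaCl2 pH 7.4. Test article pre-applied alone 5 min, then co-applied with EC20 L-glutamate plus 30 μM glycine. EC50 from Hill fit of % activation over the EC20 current.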

[2] = target: GlunN1/GluN2A glutamate receptors (Homo sapiens (Human), UniProt Q05586+Q12879); experiment: Whole-cell patch clamp of mammalian cells (Ionworks Barracuda), positive allosteric modulation, GluN1/GluN2A; assay type: cell-based; conditions: HEK293 cells; % potentiation of current elicited with EC20 L-glutamate and 30 μM glycine; read-out: Avg Emax 2A (%)
Chain of GlunN1/GluN2A glutamate receptors (Q12879 23-1464, other chains not shown): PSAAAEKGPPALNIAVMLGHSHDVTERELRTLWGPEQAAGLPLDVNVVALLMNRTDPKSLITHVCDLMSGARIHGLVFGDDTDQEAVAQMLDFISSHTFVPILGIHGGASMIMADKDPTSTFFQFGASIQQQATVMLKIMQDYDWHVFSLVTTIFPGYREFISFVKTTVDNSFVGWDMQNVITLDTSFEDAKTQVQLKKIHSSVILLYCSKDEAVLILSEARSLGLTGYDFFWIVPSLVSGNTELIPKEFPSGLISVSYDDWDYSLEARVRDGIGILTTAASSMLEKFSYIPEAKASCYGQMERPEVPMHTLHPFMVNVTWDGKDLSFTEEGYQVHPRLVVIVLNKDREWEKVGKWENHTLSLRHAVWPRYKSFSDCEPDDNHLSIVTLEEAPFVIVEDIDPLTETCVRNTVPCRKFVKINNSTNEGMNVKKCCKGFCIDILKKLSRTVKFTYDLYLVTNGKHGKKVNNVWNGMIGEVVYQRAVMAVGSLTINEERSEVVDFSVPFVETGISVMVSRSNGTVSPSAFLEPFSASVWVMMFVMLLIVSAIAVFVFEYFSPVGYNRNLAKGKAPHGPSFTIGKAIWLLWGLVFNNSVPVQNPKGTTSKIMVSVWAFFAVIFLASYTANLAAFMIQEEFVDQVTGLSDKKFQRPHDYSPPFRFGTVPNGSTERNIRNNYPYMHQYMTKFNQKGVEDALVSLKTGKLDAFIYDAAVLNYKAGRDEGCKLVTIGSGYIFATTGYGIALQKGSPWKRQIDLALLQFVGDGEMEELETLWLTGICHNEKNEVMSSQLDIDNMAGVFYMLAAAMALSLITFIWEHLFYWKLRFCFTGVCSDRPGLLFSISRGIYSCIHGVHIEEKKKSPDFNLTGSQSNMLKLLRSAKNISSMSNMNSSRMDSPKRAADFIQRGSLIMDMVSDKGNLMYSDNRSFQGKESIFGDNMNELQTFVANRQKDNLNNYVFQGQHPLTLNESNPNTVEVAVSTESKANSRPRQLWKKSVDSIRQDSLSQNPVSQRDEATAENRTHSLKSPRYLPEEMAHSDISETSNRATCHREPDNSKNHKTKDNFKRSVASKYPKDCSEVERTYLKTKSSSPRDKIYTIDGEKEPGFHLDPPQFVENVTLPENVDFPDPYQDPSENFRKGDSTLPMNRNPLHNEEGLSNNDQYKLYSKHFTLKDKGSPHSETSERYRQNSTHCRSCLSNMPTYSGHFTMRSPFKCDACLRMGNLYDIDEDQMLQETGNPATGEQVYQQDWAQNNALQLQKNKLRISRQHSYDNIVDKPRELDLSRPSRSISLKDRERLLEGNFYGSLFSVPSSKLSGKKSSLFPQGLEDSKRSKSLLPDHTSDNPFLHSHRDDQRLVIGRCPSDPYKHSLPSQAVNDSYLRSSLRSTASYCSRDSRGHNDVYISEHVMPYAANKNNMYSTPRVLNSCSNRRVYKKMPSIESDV
In short: as §1

Chain of GluN2B glutamate receptors (Q13224 27-1484, other chains not shown): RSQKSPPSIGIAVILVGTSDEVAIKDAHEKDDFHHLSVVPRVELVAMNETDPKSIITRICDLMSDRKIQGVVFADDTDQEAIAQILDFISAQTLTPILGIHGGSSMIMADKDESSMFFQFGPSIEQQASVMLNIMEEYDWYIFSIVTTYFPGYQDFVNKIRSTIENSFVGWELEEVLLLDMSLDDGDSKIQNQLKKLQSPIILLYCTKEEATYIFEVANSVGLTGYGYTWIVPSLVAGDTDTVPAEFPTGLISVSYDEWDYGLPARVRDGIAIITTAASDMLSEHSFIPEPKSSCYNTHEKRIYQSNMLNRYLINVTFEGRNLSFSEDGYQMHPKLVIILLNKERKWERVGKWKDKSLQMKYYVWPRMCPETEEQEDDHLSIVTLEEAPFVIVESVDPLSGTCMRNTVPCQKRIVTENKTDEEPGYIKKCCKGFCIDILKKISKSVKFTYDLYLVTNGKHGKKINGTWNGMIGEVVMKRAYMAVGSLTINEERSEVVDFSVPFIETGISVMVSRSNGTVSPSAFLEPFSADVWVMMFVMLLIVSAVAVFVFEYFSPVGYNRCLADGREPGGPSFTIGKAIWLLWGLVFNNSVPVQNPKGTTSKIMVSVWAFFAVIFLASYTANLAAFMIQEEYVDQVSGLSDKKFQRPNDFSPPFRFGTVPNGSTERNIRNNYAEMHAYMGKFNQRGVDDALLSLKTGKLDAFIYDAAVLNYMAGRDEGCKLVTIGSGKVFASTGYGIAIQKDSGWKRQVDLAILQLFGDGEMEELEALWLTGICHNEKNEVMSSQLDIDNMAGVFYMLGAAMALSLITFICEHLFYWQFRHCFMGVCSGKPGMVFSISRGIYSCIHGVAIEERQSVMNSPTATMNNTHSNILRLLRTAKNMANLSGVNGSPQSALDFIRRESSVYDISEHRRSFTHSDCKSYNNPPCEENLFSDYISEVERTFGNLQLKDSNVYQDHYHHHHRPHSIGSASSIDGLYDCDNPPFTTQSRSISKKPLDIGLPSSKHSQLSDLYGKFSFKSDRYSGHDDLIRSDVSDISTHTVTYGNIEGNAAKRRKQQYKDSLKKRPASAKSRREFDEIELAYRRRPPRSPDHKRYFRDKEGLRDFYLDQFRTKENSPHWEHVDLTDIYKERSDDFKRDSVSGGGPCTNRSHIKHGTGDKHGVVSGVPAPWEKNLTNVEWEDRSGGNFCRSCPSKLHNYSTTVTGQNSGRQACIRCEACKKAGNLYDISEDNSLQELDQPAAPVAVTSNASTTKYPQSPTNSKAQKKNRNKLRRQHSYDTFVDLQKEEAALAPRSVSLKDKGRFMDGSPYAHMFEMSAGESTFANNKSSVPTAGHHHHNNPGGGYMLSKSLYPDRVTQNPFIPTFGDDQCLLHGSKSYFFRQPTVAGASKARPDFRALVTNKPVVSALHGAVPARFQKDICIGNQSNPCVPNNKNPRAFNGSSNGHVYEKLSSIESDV

Row | Structure (SMILES) | Emax [1] [%] | Emax [2] [%]
1 | C[C@H](CCC[C@H](O)C(F)(F)F)[C@H]1CC[C@H]2[C@@H]3CC[C@H]4C[C@](O)(C(F)(F)F)CC[C@]4(C)[C@H]3CC[C@]12C [Compound 11934] | 70 | 113
2 | C[C@H](CCC[C@@H](O)C(C)(C)C)[C@H]1CC[C@H]2[C@@H]3CC[C@H]4C[C@](O)(C(F)(F)F)CC[C@]4(C)[C@H]3CC[C@]12C [Compound 12055] | 185 | 114
3 | C[C@H](CCC[C@H](O)C(C)(C)C)[C@H]1CC[C@H]2[C@@H]3CC[C@H]4C[C@](O)(C(F)(F)F)CC[C@]4(C)[C@H]3CC[C@]12C [Compound 12156] | 111 | 43.2
4 | C[C@H](CCC1(O)CCC(C)(C)CC1)[C@H]1CC[C@H]2[C@@H]3CC[C@H]4C[C@](O)(C(F)(F)F)CC[C@]4(C)[C@H]3CC[C@]12C [Compound E-2817] | 20.4 | 29.9
